This is an account of results in US5059615A, “Antimycotically active cyclopropyl-substituted azolylmethylcarbinols” (Bayer Aktiengesellschaft, priority 1988, dated 1991).

Values after ≈ are worked out from the molar mass of the structure shown.

The test system of assay [1] is Candida cells. In words: Antimycotic in vivo activity (oral) in mouse candidosis. Further details: species or system Mice of the SPF-CF type. Conditions: for Action / surviving on the 6th day p.i.: 10-100 mg/kg one hour before and seven hours after infection; for Action: survival on the 6th day p.i.; for surviving on the 6th day p.i.: untreated about 5%; for action (in words) / action compared with the known compounds (C) and (D): mouse candidosis. As to the method: Mice of the SPF-CF type were infected intravenously with 1-2×10^6exponentially growing Candida cells which were suspended in physiological saline solution. One hour before and seven hours after the infection, the animals were treated orally in each case with 10-100 mg/kg of body weight of the preparation. Untreated animals died 3 to 6 days post infection. The survival rate on the 6th day post infection in untreated control animals was about 5%.

The test system of assay [2] is Trichophyton mentagrophytes. In words: Antimycotic in vitro activity, serial dilution test (MIC). The format is cell-based. Conditions: Trichophyton mentagr., Sabouraud's test medium, 28-37° C., 96 hours, read-out: MIC values in μg/ml of nutrient medium. As to the method: (§1) The in vitro tests were carried out in a serial dilution test using inocula of microorganisms of on average 5×10^4 to 10^5 microorganisms/ml of substrate. The nutrient medium used was a) for dermatophytes and Hyphomycetes Sabouraud's test medium The incubation temperature was 28° C. to 37° C., and the incubation time was 24 to 96 hours with yeasts and 96 hours with dermatophytes and Hyphomycetes.

The test system of assay [3] is Aspergillus fumigatus. The assay is described as above. To be noted: Sabouraud's test medium, 28-37° C., 96 hours, read-out: MIC values in μg/ml of nutrient medium. The format is cell-based. As to the method:
as §1

The test system of assay [4] is Microsporum canis. The assay is described as above. The format is cell-based. To be noted: Sabouraud's test medium, 28-37° C., 96 hours, read-out: MIC values in μg/ml of nutrient medium. As to the method: as §1
In assay [5] the test system is Candida albicans. The assay is described as above. The format is cell-based. To be noted: for MIC: Candida albicans, meat extract-dextrose broth, 28-37° C., 24 to 96 hours, read-out: MIC values in μg/ml of nutrient medium; for activity compared with the known compounds (A) and (B): serial dilution test, in particular against Candida albicans. As to the method: (§2) The in vitro tests were carried out in a serial dilution test using inocula of microorganisms of on average 5×10^4 to 10^5 microorganisms/ml of substrate. The nutrient medium used was b) for yeasts meat extract-dextrose broth. The incubation temperature was 28° C. to 37° C., and the incubation time was 24 to 96 hours with yeasts and 96 hours with dermatophytes and Hyphomycetes.

In assay [6] the test system is Torulopsis glabrata. The assay is described as above. Conditions: Nakaseomyces glabratus, meat extract-dextrose broth, 28-37° C., 24 to 96 hours, read-out: MIC values in μg/ml of nutrient medium. The format is cell-based. As for the experimental part: as §2
The subject of assay [7] is Trichophyton mentagrophytes. In words: Antimycotic in vivo activity (local) in the experimental guinea-pig trichophytosis model. Details: species or system guinea-pigs of the Pirbright white strain. Conditions: 2.5% strength solution. As to the method: White guinea-pigs of the Pirbright white strain were infected on the shaven, non-scarified back using a microconidia and macroconidia suspension of Trichophyton mentagrophytes. The infected animals were treated locally from. The 3rd day 1x daily p.i. using a 2.5% strength solution of the preparation according to the invention (in dimethyl sulphoxide:glycerol=1:4). In untreated animals, the typical picture of dermatophytosis with reddening, scaling and hair loss up to total integumental defect of the infection site developed in the course of 12 days p.i.

Regarding `N#CC1(C(O)(Cn2cncn2)c2c(F)cccc2F)CC1` (centres unmarked) [I-15], in assay [1], the Action entry is reported as “+++++ (very good action = 90% surviving on the 6th day p.i.)”; the “surviving on the 6th day p.i.” value is above 80%; the “action (in words)” value is given as “good to very good action”; the “action compared with the known compounds (C) and (D)” value is “better than the compounds (C) and (D)”.
Take `N#CC1(C(O)(Cn2cncn2)c2ccccc2Cl)CC1` (centres unmarked) [I-13]: in assay [1], the Action result is reported as “++++ (good action = 80% surviving on the 6th day p.i.)”; the “surviving on the 6th day p.i.” value was above 80%; the “action (in words)” value is “good to very good action”; the “action compared with the known compounds (C) and (D)” value is “better than the compounds (C) and (D)”.
Turning to `N#CC1(C(O)(Cn2cncn2)c2ccc(Cl)cc2F)CC1` (centres unmarked) [I-14], the MIC in assay [2] is below 1 µg/mL; in assay [3] it was 4 µg/mL (≈ 13 µM); in assay [4], 4 µg/mL (≈ 13 µM); in assay [5], 2 µg/mL (≈ 6.52 µM); in assay [6] it was 16 µg/mL (≈ 52.2 µM). For the same molecule, the Action entry in assay [1] is on record as “+++++ (very good action = 90% surviving on the 6th day p.i.)”. In addition, the “surviving on the 6th day p.i.” value in assay [1] was above 80%. For the same molecule, in assay [1], the “action (in words)” value is given as “good to very good action”. Further, in assay [1], the “action compared with the known compounds (C) and (D)” value is “better than the compounds (C) and (D)”. The “activity compared with the known compounds (A) and (B)” value in assay [5] is given as “better activity”.
For the molecule `N#CC1(C(O)(Cn2cncn2)c2ccc(Cl)cc2)CC1` (centres unmarked) [I-3, 1-(1-Cyanocyclopropyl)-1-(4-chlorophenyl)-2-(1,2,4-triazol-1-yl)ethanol], the MIC in assay [2] was 2 µg/mL (≈ 6.93 µM); in assay [3], 4 µg/mL (≈ 13.9 µM); in assay [4] it was 4 µg/mL (≈ 13.9 µM); in assay [5] it was 2 µg/mL (≈ 6.93 µM); in assay [6], 8 µg/mL (≈ 27.7 µM). Besides, the Action entry in assay [1] was “+++++ (very good action = 90% surviving on the 6th day p.i.)”. In addition, the “surviving on the 6th day p.i.” value in assay [1] is reported as above 80%. In addition, the “action (in words)” value is “good to very good action” in assay [1] and “good action” in assay [7]. Moreover, the “action compared with the known compounds (C) and (D)” value in assay [1] is “better than the compounds (C) and (D)”. The “activity compared with the known compounds (A) and (B)” value in assay [5] is “better activity”.
Take `N#CC1(C(O)(Cn2cncn2)c2ccc(F)cc2F)CC1` (centres unmarked) [I-4, 1-(1-Cyanocyclopropyl)-1-(2,4-difluorophenyl)-2-(1,2,4-triazol-1-yl)ethanol]: in assay [1], the Action entry is reported as “+++++ (very good action = 90% surviving on the 6th day p.i.)”; the “surviving on the 6th day p.i.” value was above 80%; the “action (in words)” value is recorded as “good to very good action”; the “action compared with the known compounds (C) and (D)” value is “better than the compounds (C) and (D)”.
Turning to `N#CC1(C(O)(Cn2ccnc2)c2ccc(F)cc2)CC1` (centres unmarked) [I-5, 1-(1-cyanocyclopropyl)-1-(4-fluorophenyl)-2-(imidazol-1-yl)ethanol], the MIC in assay [2] is below 1 µg/mL; in assay [3], 4 µg/mL (≈ 14.7 µM); in assay [4], 4 µg/mL (≈ 14.7 µM); in assay [5], 8 µg/mL (≈ 29.5 µM); in assay [6] it was 8 µg/mL (≈ 29.5 µM). Also, the “activity compared with the known compounds (A) and (B)” value in assay [5] is on record as “better activity”.
As for `OC(Cn1cncn1)(Cn1cncn1)c1ccccc1` [B, reference compound], the MIC in assay [2] is 64 µg/mL (≈ 237 µM); in assay [3], above 64 µg/mL; in assay [5], 64 µg/mL (≈ 237 µM); in assay [6] it was above 64 µg/mL.
Turning to `N#CC1(C(O)(Cn2cncn2)c2ccc(OC(F)(F)F)cc2)CC1` (centres unmarked) [I-9], in assay [1], the Action entry is “+++++ (very good action = 90% surviving on the 6th day p.i.)”; the “surviving on the 6th day p.i.” value is on record as above 80%; the “action (in words)” value was “good to very good action”; the “action compared with the known compounds (C) and (D)” value was “better than the compounds (C) and (D)”.
For `N#CC1(C(O)(Cn2cncn2)c2ccc(F)cc2)CC1` (centres unmarked) [I-2, 1-(1-Cyanocyclopropyl)-1-(4-fluorophenyl)-2-(1,2,4-triazol-1-yl)ethanol], in assay [1], the Action entry is on record as “+++++ (very good action = 90% surviving on the 6th day p.i.)”; the “surviving on the 6th day p.i.” value was above 80%; the “action (in words)” value is reported as “good to very good action”; the “action compared with the known compounds (C) and (D)” value is “better than the compounds (C) and (D)”. The “action (in words)” value in assay [7] is listed as “good action”.
Turning to `N#CC1(C(O)(Cn2cncn2)c2ccc(C(F)(F)F)cc2Cl)CC1` (centres unmarked) [I-11], in assay [1], the Action entry is listed as “+++++ (very good action = 90% surviving on the 6th day p.i.)”; the “surviving on the 6th day p.i.” value is above 80%; the “action (in words)” value was “good to very good action”; the “action compared with the known compounds (C) and (D)” value was “better than the compounds (C) and (D)”.
`N#CC1(C(O)(Cn2cncn2)c2ccc(Cl)cc2Cl)CC1` (centres unmarked) [I-16]: the MIC in assay [2] is below 1 µg/mL; in assay [3] it was 2 µg/mL (≈ 6.19 µM); in assay [4], below 1 µg/mL; in assay [5] it was 16 µg/mL (≈ 49.5 µM); in assay [6], 32 µg/mL (≈ 99 µM). Also, in assay [1], the Action entry is recorded as “+++++ (very good action = 90% surviving on the 6th day p.i.)”. For the same molecule, the “surviving on the 6th day p.i.” value in assay [1] is on record as above 80%. In assay [1], the “action (in words)” value is “good to very good action”. Also, the “action compared with the known compounds (C) and (D)” value in assay [1] was “better than the compounds (C) and (D)”. For the same molecule, the “activity compared with the known compounds (A) and (B)” value in assay [5] is on record as “better activity”.
For `NC(=O)C1(C(O)(Cn2cncn2)c2ccc(F)cc2)CC1` (centres unmarked) [I-7, 1-(1-Carboxamidocyclopropyl)-1-(4-fluorophenyl)-2-(1,2,4-triazol-1-yl)ethanol], in assay [1], the Action result is “+++++ (very good action = 90% surviving on the 6th day p.i.)”; the “surviving on the 6th day p.i.” value is recorded as above 80%; the “action (in words)” value is reported as “good to very good action”; the “action compared with the known compounds (C) and (D)” value is “better than the compounds (C) and (D)”.
With `OC(Cn1cncn1)(Cn1cncn1)c1cccc(Cl)c1` [A, reference compound], the MIC is 32 µg/mL (≈ 105 µM) in assay [2], above 64 µg/mL in assay [3], above 64 µg/mL in assay [5] and above 64 µg/mL in assay [6].
